# Results reported in ChEMBL document CHEMBL4808219, “Exploration of Benzo[b]carbazole-6,11-diones as anticancer agents: Synthesis and studies of hTopoIIα inhibition and apoptotic effects” (Bioorg Med Chem Lett, 2021).
# Activity calls are given as the source filed them. No cut-off for these calls is given here.
# Key:
# MCF7 = test: Cytotoxicity against human MCF7 cells assessed as reduction in cell viability incubated for 48 hrs by MTT assay; format: functional, cell-based; details: Homo sapiens, MCF7, 48 h; read-out: IC50
# MDA-MB-231 [1] = test: Cytotoxicity against human MDA-MB-231 cells assessed as increase in deformation and shrinkage of nuclei by DAPI staining-based fluorescence microscopic analysis; format: functional, cell-based; details: dose 0.5-2.5 µM
# MDA-MB-231 [2] = test: Cytotoxicity against human MDA-MB-231 cells assessed as apoptotic nuclei at 4 uM by DAPI staining based fluorescence microscopic analysis (reference value: 4.17 to 6.67%); format: functional
# MDA-MB-231 [3] = test: Cytotoxicity against human MDA-MB-231 cells assessed as apoptotic nuclei at 5 uM by DAPI staining based fluorescence microscopic analysis (reference value: 4.17 to 6.67%); format: functional
# MDA-MB-231 [4] = test: Cytotoxicity against human MDA-MB-231 cells assessed as normal nuclei at 2 uM by DAPI staining based fluorescence microscopic analysis (reference value: 85.71 to 95.83%); format: functional
# MDA-MB-231 [5] = test: Cytotoxicity against human MDA-MB-231 cells assessed as normal nuclei at 5 uM by DAPI staining based fluorescence microscopic analysis (reference value: 93.33 to 95.83%); format: functional
# HEK-293T = test: Cytotoxicity against human HEK293T cells assessed as reduction in cell viability incubated for 48 hrs by MTT assay; format: cell-based
# MDA-MB-231 [6] = test: Cytotoxicity against human MDA-MB-231 cells assessed as normal nuclei at 1 uM by DAPI staining based fluorescence microscopic analysis (reference value: 85.71 to 95.83%); format: functional
# MDA-MB-231 [7] = test: Induction of apoptosis in human MDA-MB-231cells as increase in cleaved PARP1 level by measuring fold change in cleaved PARP1 expression by Western blot analysis relative to control; format: functional
# MDA-MB-231 [8] = test: Induction of apoptosis in human MDA-MB-231 cells assessed as upregulation of Bax level by measuring fold change in Bax expression by Western blot analysis relative to control; format: functional
# MDA-MB-231 [9] = test: Cytotoxicity against human MDA-MB-231 cells assessed as normal nuclei at 4 uM by DAPI staining based fluorescence microscopic analysis (reference value: 93.33 to 95.83%); format: functional
# MDA-MB-231 [10] = test: Genotoxicity in human MDA-MB-231 cells assessed as induction of DNA damage at 3 uM incubated for 24 hrs by comet assay; format: functional, cell-based
# MDA-MB-231 [11] = test: Induction of apoptosis in human MDA-MB-231cells assessed as downregulation of Bcl-xl level by measuring fold change in Bcl-xl expression by Western blot analysis relative to control; format: functional
# MDA-MB-231 [12] = test: Cytotoxicity against human MDA-MB-231 cells assessed as apoptotic nuclei at 3 uM by DAPI staining based fluorescence microscopic analysis (reference value: 4.17 to 6.67%); format: functional
# MDA-MB-231 [13] = test: Cytotoxicity against human MDA-MB-231 cells assessed as normal nuclei at 3 uM by DAPI staining based fluorescence microscopic analysis (reference value: 93.33 to 95.83%); format: functional
# MDA-MB-231 [14] = test: Cytotoxicity against human MDA-MB-231 cells assessed as apoptotic nuclei at 1 uM by DAPI staining based fluorescence microscopic analysis (reference value: 4.17 to 14.29%); format: functional
# [15] = Cytotoxicity against human H357 cells assessed as reduction in cell viability incubated for 48 hrs by MTT assay; format: functional, cell-based; details: Homo sapiens, H357, 48 h; read-out: IC50
# MDA-MB-231 [16] = test: Cytotoxicity against human MDA-MB-231 cells assessed as reduction in cell survival by clonogenic assay; format: functional, cell-based
# MDA-MB-231 [17] = test: Cytotoxicity against human MDA-MB-231 cells assessed as reduction in cell viability incubated for 48 hrs by MTT assay; format: functional, cell-based; details: Homo sapiens, MDA-MB-231, 48 h; read-out: IC50
# MCF-10A = test: Cytotoxicity against human MCF-10A cells; format: cell-based
# MDA-MB-231 [18] = test: Cytotoxicity against human MDA-MB-231 cells assessed as apoptotic nuclei at 2 uM by DAPI staining based fluorescence microscopic analysis (reference value: 4.17 to 14.29%); format: functional
# [19] = Downregulation of NFkappaB protein expression in human MDA-MB-231cells assessed as fold change in NF-kB expression at IC50 after 48 hrs by Western blot analysis relative to control; format: functional
# MDA-MB-231 [20] = test: Cell cycle arrest in human MDA-MB-231 cells assessed as accumulation at S phase at IC50 measured after 48 hrs by propidium iodide staining based FACS analysis (reference value: 9.2+/-0.3 %); format: functional
# [21] = Upregulation of p53 protein expression in human MDA-MB-231cells assessed as fold change in p53 expression at IC50 after 48 hrs by Western blot analysis relative to control; format: functional
# MDA-MB-231 [22] = test: Induction of apoptosis in human MDA-MB-231 cells assessed as late apoptotic cells at IC50 by Annexin V/FITC-propidium iodide staining-based flow cytometric method (reference value: 1.2 +/- 0.3 %); format: functional
# [23] = Downregulation of Cdc25A protein expression in human MDA-MB-231cells assessed as fold change in Cdc25A expression at IC50 after 48 hrs by Western blot analysis relative to control; format: functional
# MDA-MB-231 [24] = test: Genotoxicity in human MDA-MB-231 cells assessed as induction of DNA damage at 2 uM incubated for 24 hrs by comet assay; format: functional, cell-based
# MDA-MB-231 [25] = test: Cytotoxicity against human MDA-MB-231 cells assessed as apoptotic nuclei at 1.5 uM by DAPI staining based fluorescence microscopic analysis (reference value: 11.11 to 14.29%); format: functional
# [26] = Downregulation of CDC6 protein expression in human MDA-MB-231cells assessed as fold change in CDC6 expression at IC50 after 48 hrs by Western blot analysis relative to control; format: functional
# MDA-MB-231 [27] = test: Cell cycle arrest in human MDA-MB-231 cells assessed as accumulation at sub G1 phase at IC50 measured after 48 hrs by propidium iodide staining based FACS analysis (reference value: 0.7+/-0.2 %); format: functional
# [28] = Upregulation of cyclinD1 protein expression in human MDA-MB-231cells assessed as fold change in cyclin D1 expression at IC50 after 48 hrs by Western blot analysis relative to control; format: functional
# MDA-MB-231 [29] = test: Cytotoxicity against human MDA-MB-231 cells assessed as normal nuclei at 2.5 uM by DAPI staining based fluorescence microscopic analysis (reference value: 85.71 to 88.89%); format: functional
# [30] = Upregulation of p21 protein expression in human MDA-MB-231cells assessed as fold change in p21 expression at IC50 after 48 hrs by Western blot analysis relative to control; format: functional
# MDA-MB-231 [31] = test: Induction of apoptosis in human MDA-MB-231 cells assessed as necrotic cells at IC50 by Annexin V/FITC-propidium iodide staining-based flow cytometric method (reference value: 4.5 +/- 0.5 %); format: functional
# MDA-MB-231 [32] = test: Cytotoxicity against human MDA-MB-231 cells assessed as normal nuclei at 1.5 uM by DAPI staining based fluorescence microscopic analysis (reference value: 85.71 to 88.89%); format: functional
# MDA-MB-231 [33] = test: Induction of apoptosis in human MDA-MB-231 cells assessed as viable cells at IC50 by Annexin V/FITC-propidium iodide staining-based flow cytometric method (reference value: 87.2 +/- 0.7 %); format: functional
# MDA-MB-231 [34] = test: Cytotoxicity against human MDA-MB-231 cells assessed as apoptotic nuclei at 2.5 uM by DAPI staining based fluorescence microscopic analysis (reference value: 11.11 to 14.29%); format: functional
# MDA-MB-231 [35] = test: Induction of apoptosis in human MDA-MB-231 cells assessed as early apoptotic cells at IC50 by Annexin V/FITC-propidium iodide staining-based flow cytometric method (reference value: 7.1 +/- 0.4 %); format: functional
# [36] = Downregulation of cyclinB1 protein expression in human MDA-MB-231cells assessed as fold change in cyclin B1 expression at IC50 after 48 hrs by Western blot analysis relative to control; format: functional
# MDA-MB-231 [37] = test: Cell cycle arrest in human MDA-MB-231 cells assessed as accumulation at G2/M phase at IC50 measured after 48 hrs by propidium iodide staining based FACS analysis (reference value: 30.8+/-1.6 %); format: functional
# MDA-MB-231 [38] = test: Cytotoxicity against human MDA-MB-231 cells assessed as normal nuclei at 0.5 uM by DAPI staining based fluorescence microscopic analysis (reference value: 85.71 to 88.89%); format: functional
# MDA-MB-231 [39] = test: Cell cycle arrest in human MDA-MB-231 cells assessed as accumulation at G1 phase at IC50 measured after 48 hrs by propidium iodide staining based FACS analysis (reference value: 59.3+/-2.9 %); format: functional
# MDA-MB-231 [40] = test: Cytotoxicity against human MDA-MB-231 cells assessed as apoptotic nuclei at 0.5 uM by DAPI staining based fluorescence microscopic analysis (reference value: 11.11 to 14.29%); format: functional
smiles,measurement,setting,value
O=C1c2cccc(O)c2C(=O)c2c1[nH]c1ccccc21,IC50,MCF7,3 µM
same,Activity,MDA-MB-231 [1],Dose-Dependent Effect
same,Activity,MDA-MB-231 [2],55.56%
same,Activity,MDA-MB-231 [3],73.33%
same,Activity,MDA-MB-231 [4],63.64%
same,Activity,MDA-MB-231 [5],26.67%
same,IC50,HEK-293T,4 µM
same,Activity,MDA-MB-231 [6],74.07%
same,fold change (FC),MDA-MB-231 [7],1
same,fold change (FC),MDA-MB-231 [8],2.2
same,Activity,MDA-MB-231 [9],44.44%
same,Activity,MDA-MB-231 [10],Active
same,fold change (FC),MDA-MB-231 [11],0.2
same,Activity,MDA-MB-231 [12],48.48%
same,Activity,MDA-MB-231 [13],51.52%
same,Activity,MDA-MB-231 [14],25.93%
same,IC50,[15],3.6 µM
same,IC50,MDA-MB-231 [16],2.7 µM
same,IC50,MDA-MB-231 [17],3.2 µM
same,IC50,MCF-10A,105 µM
same,Activity,MDA-MB-231 [18],36.36%
COc1cccc(NC2=CC(=O)c3ccccc3C2=O)c1,fold change (FC),[19],0.7
same,IC50,MCF7,2 µM
same,Activity,MDA-MB-231 [1],Dose-Dependent Effect
same,Activity,MDA-MB-231 [20],20.2%
same,fold change (FC),[21],2.1
same,Activity,MDA-MB-231 [22],5.3%
same,fold change (FC),[23],0.4
same,Activity,MDA-MB-231 [24],Active
same,Activity,MDA-MB-231 [25],48.72%
same,Activity,MDA-MB-231 [4],45.45%
same,fold change (FC),[26],0.4
same,Activity,MDA-MB-231 [27],11.8%
same,IC50,HEK-293T,4.5 µM
same,fold change (FC),[28],1.8
same,Activity,MDA-MB-231 [6],63.89%
same,fold change (FC),MDA-MB-231 [7],0.3
same,Activity,MDA-MB-231 [29],19.05%
same,fold change (FC),MDA-MB-231 [8],1.6
same,fold change (FC),[30],2.1
same,Activity,MDA-MB-231 [31],18.5%
same,Activity,MDA-MB-231 [32],51.28%
same,Activity,MDA-MB-231 [33],50.1%
same,Activity,MDA-MB-231 [34],80.95%
same,Activity,MDA-MB-231 [35],26.1%
same,fold change (FC),[36],0.3
same,Activity,MDA-MB-231 [37],23.3%
same,fold change (FC),MDA-MB-231 [11],0.6
same,Activity,MDA-MB-231 [38],82.05%
same,Activity,MDA-MB-231 [14],36.11%
same,IC50,[15],2.1 µM
same,Activity,MDA-MB-231 [39],44.7%
same,IC50,MDA-MB-231 [16],1.5 µM
same,IC50,MDA-MB-231 [17],2.1 µM
same,Activity,MDA-MB-231 [40],17.95%
same,IC50,MCF-10A,90 µM
same,Activity,MDA-MB-231 [18],54.55%
